Measurements as given in publication PMC11062922 (Nature Chemical Biology, 2023).

What was measured:
PDXK = target: T1, PDXK (Homo sapiens, UniProt O00764); test: Kinobeads competition binding: PDXK; conditions: target PDXK;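 also: share of total target engagement due to this protein at one drug concentration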
T1 construct: a mixture of lysates from five cancer cell lines; endogenous in cells
T1 sequence (O00764 1-312): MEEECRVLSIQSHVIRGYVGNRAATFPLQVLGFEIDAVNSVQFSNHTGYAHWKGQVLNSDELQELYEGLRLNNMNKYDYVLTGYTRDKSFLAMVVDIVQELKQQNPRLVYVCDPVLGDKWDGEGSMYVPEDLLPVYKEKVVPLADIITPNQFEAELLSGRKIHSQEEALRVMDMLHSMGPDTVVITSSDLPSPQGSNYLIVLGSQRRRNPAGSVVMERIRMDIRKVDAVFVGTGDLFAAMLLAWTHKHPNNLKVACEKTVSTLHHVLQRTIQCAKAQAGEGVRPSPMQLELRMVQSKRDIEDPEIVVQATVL
Description: Supplement 41589_2023_1459_MOESM4_ESM.xlsx, sheet "CATDS matrix" | column: PDXK

FES = target: T2, FES (Homo sapiens, UniProt P07332); test: Kinobeads competition binding: FES; conditions: target FES;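 also: selectivity score: engagement of this protein divided by summed engagement of all targets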
T2 construct: endogenous in cells
Description: Supplement 41589_2023_1459_MOESM4_ESM.xlsx, sheet "CATDS matrix" | column: FES

PAK6 = target: T3, PAK6 (Homo sapiens, UniProt Q9NQU5); test: Kinobeads competition binding: PAK6; conditions: target PAK6
T3 construct: a mixture of lysates from five cancer cell lines; endogenous in cells

CDK5 = target: T4, CDK5 (Homo sapiens, UniProt Q00535); test: Kinobeads competition binding: CDK5; conditions: target CDK5
T4 construct: endogenous in cells

PI4KB = test: Kinobeads competition binding: PI4KB; parameters: species or system human; conditions: target PI4KB;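 also: selectivity score: engagement of this protein divided by summed engagement of all targets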
ERN2 = target: T5, ERN2 (Homo sapiens, UniProt Q76MJ5); test: Kinobeads competition binding: ERN2; conditions: target ERN2
T5 construct: endogenous in cells

EPHA1 = target: T6, EPHA1 (Homo sapiens, UniProt P21709); test: Kinobeads competition binding: EPHA1; conditions: target EPHA1
T6 construct: endogenous in cells
T6 sequence (P21709 26-976): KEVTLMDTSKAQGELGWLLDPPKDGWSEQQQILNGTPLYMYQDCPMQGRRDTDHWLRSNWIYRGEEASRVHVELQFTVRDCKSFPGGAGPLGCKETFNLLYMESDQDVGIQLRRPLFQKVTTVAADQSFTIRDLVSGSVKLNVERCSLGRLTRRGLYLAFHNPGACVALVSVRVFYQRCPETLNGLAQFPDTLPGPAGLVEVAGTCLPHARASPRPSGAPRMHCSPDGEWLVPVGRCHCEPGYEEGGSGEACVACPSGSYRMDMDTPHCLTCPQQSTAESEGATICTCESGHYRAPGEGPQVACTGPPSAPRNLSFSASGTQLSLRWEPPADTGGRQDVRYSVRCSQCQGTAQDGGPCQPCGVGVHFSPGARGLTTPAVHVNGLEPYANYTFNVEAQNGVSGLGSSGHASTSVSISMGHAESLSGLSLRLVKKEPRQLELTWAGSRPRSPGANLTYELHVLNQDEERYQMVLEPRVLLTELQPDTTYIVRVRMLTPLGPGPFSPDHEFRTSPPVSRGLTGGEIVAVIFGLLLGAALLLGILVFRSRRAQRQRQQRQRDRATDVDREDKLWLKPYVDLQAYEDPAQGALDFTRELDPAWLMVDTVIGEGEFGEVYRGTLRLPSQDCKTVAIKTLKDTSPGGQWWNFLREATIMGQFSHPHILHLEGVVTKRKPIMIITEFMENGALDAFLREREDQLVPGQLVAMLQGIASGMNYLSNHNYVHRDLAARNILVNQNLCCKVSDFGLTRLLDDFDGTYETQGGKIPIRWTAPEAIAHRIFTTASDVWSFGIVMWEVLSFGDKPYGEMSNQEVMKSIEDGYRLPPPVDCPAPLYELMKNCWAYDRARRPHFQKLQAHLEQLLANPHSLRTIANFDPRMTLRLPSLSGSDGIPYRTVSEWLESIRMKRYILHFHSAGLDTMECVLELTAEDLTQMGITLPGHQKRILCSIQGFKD
Description: Supplement 41589_2023_1459_MOESM4_ESM.xlsx, sheet "CATDS matrix" | column: EPHA1

CSNK1E = target: T7, CSNK1E (Homo sapiens, UniProt P49674); test: Kinobeads competition binding: CSNK1E; conditions: target CSNK1E
T7 construct: endogenous in cells
T7 sequence (P49674 whole entry): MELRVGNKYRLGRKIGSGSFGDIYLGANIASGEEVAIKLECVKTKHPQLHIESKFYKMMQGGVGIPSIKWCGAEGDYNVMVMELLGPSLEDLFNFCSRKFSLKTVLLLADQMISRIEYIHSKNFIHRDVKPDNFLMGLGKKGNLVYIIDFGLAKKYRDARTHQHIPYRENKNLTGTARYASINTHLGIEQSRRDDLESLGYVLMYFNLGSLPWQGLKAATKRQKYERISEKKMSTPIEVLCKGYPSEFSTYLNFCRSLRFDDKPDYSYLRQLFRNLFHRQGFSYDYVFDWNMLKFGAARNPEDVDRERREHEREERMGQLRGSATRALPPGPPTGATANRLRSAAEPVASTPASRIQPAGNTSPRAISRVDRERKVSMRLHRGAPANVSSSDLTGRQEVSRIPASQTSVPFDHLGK

T2 sequence (P07332 whole entry): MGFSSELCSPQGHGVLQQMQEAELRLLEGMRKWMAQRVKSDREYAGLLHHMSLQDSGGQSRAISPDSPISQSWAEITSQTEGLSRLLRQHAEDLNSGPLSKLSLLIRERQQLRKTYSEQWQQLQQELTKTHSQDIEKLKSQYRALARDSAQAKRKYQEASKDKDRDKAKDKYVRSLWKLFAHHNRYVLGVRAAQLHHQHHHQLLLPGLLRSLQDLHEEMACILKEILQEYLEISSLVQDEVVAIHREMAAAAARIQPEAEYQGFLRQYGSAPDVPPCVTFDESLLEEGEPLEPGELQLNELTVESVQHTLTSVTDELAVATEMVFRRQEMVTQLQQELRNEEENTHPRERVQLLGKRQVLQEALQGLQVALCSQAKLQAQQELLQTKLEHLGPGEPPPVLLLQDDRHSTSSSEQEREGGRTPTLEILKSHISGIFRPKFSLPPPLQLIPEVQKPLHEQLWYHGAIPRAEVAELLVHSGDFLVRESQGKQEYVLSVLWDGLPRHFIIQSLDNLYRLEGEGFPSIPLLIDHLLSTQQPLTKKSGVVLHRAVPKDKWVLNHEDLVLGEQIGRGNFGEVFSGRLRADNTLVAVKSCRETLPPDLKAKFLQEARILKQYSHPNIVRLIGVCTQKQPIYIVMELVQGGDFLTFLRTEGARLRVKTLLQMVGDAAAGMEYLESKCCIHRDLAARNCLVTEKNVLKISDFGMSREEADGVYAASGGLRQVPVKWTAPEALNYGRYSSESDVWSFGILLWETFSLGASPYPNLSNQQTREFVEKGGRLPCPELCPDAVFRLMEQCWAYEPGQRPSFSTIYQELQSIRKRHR
T3 sequence (Q9NQU5 whole entry): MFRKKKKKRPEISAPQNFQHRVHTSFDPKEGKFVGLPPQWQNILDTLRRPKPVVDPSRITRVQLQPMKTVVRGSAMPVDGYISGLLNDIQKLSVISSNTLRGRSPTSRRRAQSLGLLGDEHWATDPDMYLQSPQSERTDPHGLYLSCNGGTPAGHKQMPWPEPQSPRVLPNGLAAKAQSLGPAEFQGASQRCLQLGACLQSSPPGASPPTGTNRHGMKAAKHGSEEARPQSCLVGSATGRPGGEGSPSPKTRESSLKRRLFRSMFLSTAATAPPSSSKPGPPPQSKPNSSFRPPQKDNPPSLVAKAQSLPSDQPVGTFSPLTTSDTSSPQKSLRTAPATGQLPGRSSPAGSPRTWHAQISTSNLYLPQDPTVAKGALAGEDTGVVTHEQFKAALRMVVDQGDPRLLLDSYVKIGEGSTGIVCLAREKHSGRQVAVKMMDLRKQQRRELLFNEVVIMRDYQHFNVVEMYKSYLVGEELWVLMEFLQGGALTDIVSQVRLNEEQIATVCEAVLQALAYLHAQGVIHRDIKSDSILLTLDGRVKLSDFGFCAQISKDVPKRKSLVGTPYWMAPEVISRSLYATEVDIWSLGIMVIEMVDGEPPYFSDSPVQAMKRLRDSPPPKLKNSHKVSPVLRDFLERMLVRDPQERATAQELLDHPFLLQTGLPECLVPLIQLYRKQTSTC
T5 sequence (Q76MJ5 35-926): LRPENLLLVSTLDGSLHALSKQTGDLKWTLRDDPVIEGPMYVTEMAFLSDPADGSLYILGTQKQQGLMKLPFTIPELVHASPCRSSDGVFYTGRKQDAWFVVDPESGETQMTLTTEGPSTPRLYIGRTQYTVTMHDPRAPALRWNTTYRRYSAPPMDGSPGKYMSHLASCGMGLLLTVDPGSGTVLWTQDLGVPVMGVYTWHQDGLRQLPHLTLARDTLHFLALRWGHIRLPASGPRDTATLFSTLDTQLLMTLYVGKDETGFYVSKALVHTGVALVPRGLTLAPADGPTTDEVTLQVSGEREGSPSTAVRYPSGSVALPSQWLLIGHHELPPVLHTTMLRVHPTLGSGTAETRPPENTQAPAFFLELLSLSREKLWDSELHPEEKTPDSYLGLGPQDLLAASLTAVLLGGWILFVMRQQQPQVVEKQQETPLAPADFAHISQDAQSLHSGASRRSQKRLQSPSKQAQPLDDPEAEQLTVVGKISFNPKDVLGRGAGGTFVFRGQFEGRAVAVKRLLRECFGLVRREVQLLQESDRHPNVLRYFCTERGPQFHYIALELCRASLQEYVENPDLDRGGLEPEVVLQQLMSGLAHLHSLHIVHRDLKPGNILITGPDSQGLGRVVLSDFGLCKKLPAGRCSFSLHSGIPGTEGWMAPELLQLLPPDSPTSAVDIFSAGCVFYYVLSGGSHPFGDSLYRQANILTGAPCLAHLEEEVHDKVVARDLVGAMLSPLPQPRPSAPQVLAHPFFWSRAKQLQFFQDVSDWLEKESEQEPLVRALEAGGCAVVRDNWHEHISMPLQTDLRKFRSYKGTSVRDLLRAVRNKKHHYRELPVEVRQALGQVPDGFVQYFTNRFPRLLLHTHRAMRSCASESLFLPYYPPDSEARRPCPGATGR
T4 sequence (Q00535 whole entry): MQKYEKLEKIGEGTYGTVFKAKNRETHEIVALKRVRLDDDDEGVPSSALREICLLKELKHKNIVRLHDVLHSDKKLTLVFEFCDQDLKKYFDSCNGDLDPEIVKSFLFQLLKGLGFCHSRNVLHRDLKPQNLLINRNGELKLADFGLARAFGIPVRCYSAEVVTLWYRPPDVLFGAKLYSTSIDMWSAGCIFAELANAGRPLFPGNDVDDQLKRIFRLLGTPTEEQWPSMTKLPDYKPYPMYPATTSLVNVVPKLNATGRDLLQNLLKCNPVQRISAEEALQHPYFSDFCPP

| SMILES | CATDS (PDXK) | CATDS (FES) | CATDS (PAK6) | CATDS (CDK5) | CATDS (PI4KB) | CATDS (ERN2) | CATDS (EPHA1) | CATDS (CSNK1E) |
| --- | --- | --- | --- | --- | --- | --- | --- | --- |
| CCN1CCN(Cc2ccc(Nc3ncc(F)c(-c4cc(F)c5nc(C)n(C(C)C)c5c4)n3)nc2)CC1 [Abemaciclib] | 0 | 0 | 0 | 0 | 0 | 0 | 0 | – |
| CN(C)C/C=C/C(=O)Nc1cc2c(Nc3ccc(F)c(Cl)c3)ncnc2cc1O[C@H]1CCOC1 [Afatinib] | 0 | 0 | – | – | – | – | 0 | 0 |
| CCc1cc2c(cc1N1CCC(N3CCOCC3)CC1)C(C)(C)c1[nH]c3cc(C#N)ccc3c1C2=O [Alectinib] | 0 | 0 | 0 | 0 | 0 | 0 | 0 | 0 |
| Nc1ncnc2[nH]c(-c3ccccc3)nc12 [AH5015_KCGS] | 0 | 0 | 0 | 0 | 0 | 0 | 0 | 0 |
| N#CC1(c2ccc(NC(=O)c3cccnc3NCc3ccncc3)cc2)CCCC1 [Apatinib] | 0 | 0 | 0 | 0 | 0 | 0 | 0 | 0 |
